One data set relates to Matricaria chamomilla. Nature of the data set: Postemergence herbicidal activity of mixtures in cereal crops. The data set is classed as in vivo. The note with it: after 3 weeks. The procedure:
(§1) Seeds of the desired test plant species were planted and reared as described in “Evaluation of Postemergence Herbicidal Safening in Cereal Crops” (section 37).
(§2) Treatments consisted of compound (as listed in Tables 6 and 7), fluroxypyr methylheptyl ester (MHE), and clopyralid monoethanolamine (MEA) salt alone and in combination. Weighed amounts were placed in 25 mL glass vials and dissolved in a volume of 97:3 v/v acetone/DMSO to obtain 4.5 mg ai/mL stock solutions. […] The concentrated stock solutions were diluted to 1.5 mg ai/mL with the addition of 2 volumes of an aqueous mixture containing acetone, water, isopropyl alcohol, DMSO, Agri-dex crop oil concentrate, and Triton® X-77 surfactant in a 64.7:26.0:6.7:2.0:0.7:0.01 v/v ratio. A dilution solution was prepared by mixing 1 volume of 97:3 v/v acetone/DMSO and 2 volumes of an aqueous mixture containing acetone, water, isopropyl alcohol, DMSO, Agri-dex crop oil concentrate, and Triton® X-77 surfactant in a 64.7:26.0:6.7:2.0:0.7:0.01 v/v ratio. Compound requirements are based upon a 12 mL application volume at a rate of 187 L/ha. Spray solutions of fluroxypyr MHE, clopyralid MEA, and experimental compound mixtures were prepared by adding the stock solutions to the appropriate amount of dilution solution to form 12 mL spray solution with active ingredients in two- and three-way combinations. Formulated compounds were applied to the plant material with an overhead Mandel track sprayer equipped with a 8002E nozzles calibrated to deliver 187 L/ha over an application area of 0.503 square meters at a spray height of 18 inches (43 cm) above average plant canope. Control plants were sprayed in the same manner with the solvent blank.
(§3) The treated plants and control plants were placed in a greenhouse as described above and watered by sub-irrigation to prevent wash-off of the test compounds. After 3 weeks the condition of the test plants as compared with that of the control plants was determined visually and scored on a scale of 0 to 100 percent where 0 corresponds to no injury and 100 corresponds to complete kill.
(§4) Colby's equation was used to determine the herbicidal effects expected from the mixtures (Colby, S. R. 1967. Calculation of the synergistic and antagonistic response of herbicide combinations. Weeds 15:20-22.).
(§5) The following equation was used to calculate the expected activity of mixtures containing two active ingredients, A and B: Expected=A+B−(A×B/100) • A=observed efficacy of active ingredient A at the same concentration as used in the mixture. • B=observed efficacy of active ingredient B at the same concentration as used in the mixture.
(§6) The following equation was used to calculate the expected activity of mixtures containing three active ingredients, A, B, and C: Expected=A+B+C−(A×B+B×C+A×C)/100+(A×B×C)/10000 • A=observed efficacy of active ingredient A at the same concentration as used in the mixture. • B=observed efficacy of active ingredient B at the same concentration as used in the mixture. • C=observed efficacy of active ingredient C at the same concentration as used in the mixture.

The subject of data set [1] is Hordeum vulgare (winter barley). The data set is described as above. In kind it is in vivo. The note with it: after 3 weeks. The procedure: as §1, §2, §3, §4, §5, §6
Data set [2] relates to Triticum aestivum (spring wheat). Described as above. The note with it: after 3 weeks. In kind it is in vivo. Here is the method:
as §1, §2, §3, §4, §5, §6

The next data set concerns Papaver rhoeas. Briefly: Postemergence herbicidal safening in cereal crops. In kind it is in vivo. The note with it: Table 5, applied alone, after 3 weeks. Here is the method:
(§7) Seeds of the desired test plant species were planted in Sun Gro MetroMix® 306 planting mixture, which typically has a pH of 6.0 to 6.8 and an organic matter content of about 30 percent, in plastic pots with a surface area of 103.2 square centimeters. When required to ensure good germination and healthy plants, a fungicide treatment and/or other chemical or physical treatment was applied. The plants were grown for 7-36 days in a greenhouse with an approximate 14 hour photoperiod which was maintained at about 18° C. during the day and 17° C. during the night. Nutrients and water were added on a regular basis and supplemental lighting was provided with overhead metal halide 1000-Watt lamps as necessary. The plants were employed for testing when they reached the second or third true leaf stage. Treatments consisted of compound 42 and cloquintocet-mexyl alone and in combination. Weighed amounts were placed in 25 mL glass vials and dissolved in a volume of 97:3 v/v acetone/DMSO to obtain 9 mg ai/mL stock solutions. […] A dilution solution was prepared by mixing 1 volume of 97:3 v/v acetone/DMSO and 2 volumes of an aqueous mixture containing acetone, water, isopropyl alcohol, DMSO, Agri-dex crop oil concentrate, and Triton® X-77 surfactant in a 64.7:26.0:6.7:2.0:0.7:0.01 v/v ratio. Compound requirements are based upon a 12 mL application volume at a rate of 187 L/ha. […] Formulated compounds were applied to the plant material with an overhead Mandel track sprayer equipped with a […] nozzles calibrated to deliver 187 L/ha over an application area of 0.503 square meters at a spray height of 18 inches (43 cm) above average plant canopy height. Control plants were sprayed in the same manner with the solvent blank. The treated plants and control plants were placed in a greenhouse as described above and watered by sub-irrigation to prevent wash-off of the test compounds. After 3 weeks the condition of the test plants as compared with that of the untreated plants was determined visually and scored on a scale of 0 to 100 percent where 0 corresponds to no injury and 100 corresponds to complete kill. Colby's equation was used to determine the herbicidal effects expected from the mixtures (Colby, S. R. 1967. Calculation of the synergistic and antagonistic response of herbicide combinations. Weeds 15:20-22.). The following equation was used to calculate the expected activity of mixtures containing two active ingredients, A and B: Expected=A+B-(A×B/100) • A=observed efficacy of active ingredient A at the same concentration as used in the mixture. • B=observed efficacy of active ingredient B at the same concentration as used in the mixture.

The subject of data set [3] is Hordeum vulgare (winter barley). Briefly: Postemergence herbicidal safening in cereal crops. The data set is classed as in vivo. The note with it: Table 5, applied alone, after 3 weeks. Here is the method: as §7
The next data set relates to Galium aparine. Nature of the data set: Postemergence herbicidal safening in cereal crops. The data set is classed as in vivo. The note with it: Table 5, applied alone, after 3 weeks. Here is the method: as §7
For data set [4], the system named is Triticum aestivum (spring wheat). Briefly: Postemergence herbicidal safening in cereal crops. In kind it is in vivo. The note with it: Table 5, applied alone, after 3 weeks. The procedure:
as §7

The subject of data set [5] is lambsquarter (Chenopodium album). Nature of the data set: Postemergence herbicidal activity. The data set is classed as in vivo. The note with it: Chenopodium album, post-emergence, 336 h, post-emergent, 140 g ai/ha, after 14 days; read-out: % Control CHEAL. In a few lines:
(§8)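 Compounds were applied postemergence by track sprayer delivering 187 L/ha, using a mixed organic/aqueous carrier containing crop oil concentrate and surfactant; solvent-blank sprays served as controls. Test plants were at the first to second true leaf stage after 7-21 days' greenhouse growth, were sub-irrigated after treatment, and were evaluated by probit analysis.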

Data set [6] concerns redroot pigweed (Amaranthus retroflexus). Briefly: Postemergence herbicidal activity. The data set is classed as in vivo. The note with it: Amaranthus retroflexus, post-emergence, 336 h, post-emergent, 140 g ai/ha, after 14 days; read-out: % Control AMARE. In a few lines: as §8
In data set [7] the test system is velvetleaf (Abutilon theophrasti). Briefly: Postemergence herbicidal activity. In kind it is in vivo. The note with it: Abutilon theophrasti, post-emergence, 336 h, post-emergent, 140 g ai/ha, after 14 days; read-out: % Control ABUTH. In a few lines: as §8
Data set [8] concerns lambsquarter (Chenopodium album). Nature of the data set: Preemergence herbicidal activity. In kind it is in vivo. The note with it: Chenopodium album, pre-emergence, 480 h; pre-emergent, 140 g ai/ha, after 20-22 days; read-out: % Control CHEAL. In a few lines:
(§9)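 Seeds sown in 70:30 loam (pH about 8.1, about 1.5% organic matter) and sand mix, then sprayed preemergence at 187 L/ha with a track sprayer; controls received solvent blank. Pots kept in greenhouse, about 15 h photoperiod, about 23-29° C. day and 22-28° C. night, top-irrigated.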

The test system of data set [9] is redroot pigweed (Amaranthus retroflexus). Briefly: Preemergence herbicidal activity. In kind it is in vivo. The note with it: Amaranthus retroflexus, pre-emergence, 480 h; pre-emergent, 140 g ai/ha, after 20-22 days; read-out: % Control AMARE. In a few lines:
as §9

Data set [10] has as its system velvetleaf (Abutilon theophrasti). Nature of the data set: Preemergence herbicidal activity. The data set is classed as in vivo. The note with it: Abutilon theophrasti, pre-emergence, 480 h; pre-emergent, 140 g ai/ha, after 20-22 days; read-out: % Control ABUTH. In a few lines: as §9
Where [11] appears, read: Table 6, applied alone, 35 g ai/ha.
Setting [12] is: Table 7, applied alone, 35 g ai/ha.
[13] abbreviates: Table 7, applied alone, 70 g ai/ha.

The structures appear in SMILES notation.

In the case of `NCCO.O=C(O)c1nc(Cl)ccc1Cl` [Clopyralid MEA, clopyralid monoethanolamine (MEA) salt], the “% Control MATCH Ob” value is recorded as 20% in the data set on Matricaria chamomilla (setting [11]), 5% in the data set with Matricaria chamomilla (setting [12]) and 40% in the data set on Matricaria chamomilla (setting [13]). Besides, the “% Control HORVW Ob” value in data set [1] (setting [11]), in data set [1] (setting [12]) and in data set [1] (setting [13]) was 0% in each case. The “% Control TRZAS Ob” value in data set [2] (setting [11]), in data set [2] (setting [12]) and in [2] (setting [13]) was 0% in each case.
For `CCCCCC(C)OC(=O)COc1ccc(Cl)c2cccnc12` (stereo not drawn) [Cloquintocetmexyl, cloquintocet-mexyl], the “% Control PAPRH Ob” value in the data set with Papaver rhoeas (35 g ai/ha), in the data set with Papaver rhoeas (70 g ai/ha), in the data set on Papaver rhoeas (140 g ai/ha) and with Papaver rhoeas (280 g ai/ha) was 0% throughout. The “% Control HORVW Ob” value in [3] (35 g ai/ha), in [3] (70 g ai/ha), in data set [3] (140 g ai/ha) and in data set [3] (280 g ai/ha) was 0% in each case. For the same molecule, the “% Control GALAP Ob” value in the data set on Galium aparine (35 g ai/ha), in the data set on Galium aparine (70 g ai/ha), with Galium aparine (140 g ai/ha) and in the data set with Galium aparine (280 g ai/ha) was 0% each time. Also, the “% Control TRZAS Ob” value in data set [4] (35 g ai/ha), in [4] (70 g ai/ha), in data set [4] (140 g ai/ha) and in [4] (280 g ai/ha) was 0% in each case.
One may read the melting point as the temperature, or range, at which the solid turns liquid. The molecule `COC(=O)c1nc(-c2ccc(F)c(OC)c2Cl)cc(N)c1Cl` [Compound 74, 4-Amino-3-chloro-6-(2-chloro-4-fluoro-3-methoxyphenyl)pyridine-2-carboxylic acid, methyl ester] gave a melting point of 145 to 146 °C. Moreover, in [5], the pest or weed control at 140 g/ha was determined as 100%. Besides, the pest or weed control at 140 g/ha in data set [6] is 90%. For the same molecule, the pest or weed control at 140 g/ha in data set [7] amounted to 100%. Further, in the data set with Matricaria chamomilla (setting [11]), the “% Control MATCH Ob” value worked out at 10%. Further, the “% Control HORVW Ob” value in [1] (setting [11]) stood at 0%. In addition, the “% Control TRZAS Ob” value in [2] (setting [11]) turned out to be 25%. The pest or weed control at 140 g/ha in data set [8] was 95%. In addition, the pest or weed control at 140 g/ha in data set [9] turned out to be 95%. Further, the pest or weed control at 140 g/ha in data set [10] amounted to 100%.
Take `COc1c(C)cc(F)c(-c2cc(N)c(Cl)c(C(=O)O)n2)c1F` [Compound 93, 4-Amino-3-chloro-6-(2,6-difluoro-3-methoxy-4-methylphenyl)pyridine-2-carboxylic acid]: the melting point was in the range of 167 to 168 °C. Further, in data set [5], the pest or weed control at 140 g/ha came out at 100%. In addition, the pest or weed control at 140 g/ha in [6] stood at 100%. In addition, the pest or weed control at 140 g/ha in [7] is 100%. Besides, the “% Control MATCH Ob” value in the data set on Matricaria chamomilla (setting [11]) is 45%. The “% Control HORVW Ob” value in data set [1] (setting [11]) worked out at 10%. Further, the “% Control TRZAS Ob” value in data set [2] (setting [11]) turned out to be 15%. For the same molecule, the pest or weed control at 140 g/ha in [8] stood at 100%. For the same molecule, the pest or weed control at 140 g/ha in [9] is 100%. In data set [10], the pest or weed control at 140 g/ha stood at 100%.
For the molecule `CCCCCCC(C)OC(=O)COc1nc(F)c(Cl)c(N)c1Cl` (stereo not drawn) [Fluroxypyr MHE, fluroxypyr methylheptyl ester], the “% Control MATCH Ob” value with Matricaria chamomilla (setting [11]), in the data set with Matricaria chamomilla (setting [12]) and in the data set with Matricaria chamomilla (setting [13]) was 0% throughout. Further, the “% Control HORVW Ob” value in data set [1] (setting [11]), in data set [1] (setting [12]) and in data set [1] (setting [13]) was 0% throughout. The “% Control TRZAS Ob” value in data set [2] (setting [11]), in [2] (setting [12]) and in [2] (setting [13]) was 0% each time.

These data come from patent US20070179060A1, “6-(Poly-substituted aryl)-4-aminopicolinates and their use as herbicides” (priority 2006, published 2007).
